Source: patent US10981940B2, “Trityl protecting agent” (SEKISUI MEDICAL CO., LTD., priority 2016, dated 2021)
In brackets after ≈: the same amount, converted by molar mass. Where a SMILES comes first, the peptide text is derived from it.

Test: Solubility in CPME (cyclopentyl methyl ether), dissolved to saturation at 25° C.
Format: physicochemical
Settings: dissolved to saturation in CPME (cyclopentyl methyl ether) at 25° C.
Method: Peptide used as a model: H-Phe-Leu-Gly-OH
H-Phe-Leu-Gly-OH and H-Phe-Leu-Gly-O-(TIPS2-4,4′-diClTrt) were synthesized, and the respective compounds were dissolved to saturation in CPME (cyclopentyl methyl ether) at 25° C. Thus, the solubilities were measured.

CC(C)C[C@H](NC(=O)[C@@H](N)Cc1ccccc1)C(=O)NCC(=O)O [H-Phe-Leu-Gly-OH] (H-Phe-Leu-Gly-OH)
solubility: 0.9 mM (≈ 0.302 mg/mL)

CC(C)C[C@H](NC(=O)[C@@H](N)Cc1ccccc1)C(=O)NCC(=O)OC(c1ccc(Cl)cc1)(c1ccc(Cl)cc1)c1cc(OCCCCCCCCCCCO[Si](C(C)C)(C(C)C)C(C)C)cc(OCCCCCCCCCCCO[Si](C(C)C)(C(C)C)C(C)C)c1 [H-Phe-Leu-Gly-O-(TIPS2-4,4′-diClTrt)]
solubility: ≥ 1030 mM
